Assay [1] relates to CT26 tumors. Description: Subcutaneous implanted CT26 model, h5D8 combined with cisplatin, doxorubicin or paclitaxel. In kind it is in vivo, mouse. The following applies: individual BALB/c mice, h5D8 15 mg/kg twice a week, cisplatin 10 mg/kg once a week, paclitaxel 15 mg/kg twice a week, doxorubicin 4 mg/kg once a week.
For another assay, the system named is ID8 cells. Description: Ovarian orthotopic syngeneic tumor model ID8 in mice. In kind it is in vivo. The following applies: 200 μg/mouse and above twice weekly, FIG. 8C. The procedure:
The efficacy of r5D8 was evaluated in two other syngeneic tumor models.
ID8 cells were cultured in Dulbecco's Modified Eagle Medium (DMEM) (Gibco, Invitrogen), supplemented with 10% Fetal Bovine Serum (FBS) (Gibco, Invitrogen), 40 U/mL Penicillin and 40 μg/mL Streptomycin (PenStrep) (Gibco, Invitrogen) and 0.25 μg/mL Plasmocin (Invivogen).
The ID8 cells were harvested, washed in PBS, centrifuged at 400 g for 5 min and resuspended in PBS. Cells were kept on ice to maintain optimal viability and 200 μL of the cell suspension was injected intraperitoneally with a 27G needle. The final cell number implanted into mice was 5×10^6.
Mice were treated twice weekly with h5D8 administered ip at different doses as indicated. Body weights were measured 2 times/week and tumor progression was monitored by measuring abdominal girth using a caliper (Fisher Scientific).

The subject of assay [2] is CT26 tumors. Nature of the assay: Subcutaneous colon CT26 syngeneic tumor model in mice. The class given is in vivo, mouse. Conditions: FIG. 10E. The protocol:
CT26 cells were cultured in Roswell Park Memorial Institute medium (RPMI [Gibco, Invitrogen]), supplemented with 10% Fetal Bovine Serum (FBS), 40 U/mL penicillin and 40 μg/mL streptomycin (PenStrep) and 0.25 μg/mL Plasmocin.
CT26 cells (8×10^5)were trypsinized, rinsed with PBS, centrifuged at 400 g for 5 minutes and resuspended in 100 μL PBS. Cells were kept on ice to avoid cell death. The CT26 cells were administered to mice via subcutaneous injection using a 27G needle.
300 μg r5D8, or vehicle control, was administered to the mice via intraperitoneal injection (IP) twice weekly from day 3 post CT26 cell implant.
Body weight and tumor volumes were measured three times per week. Tumor volume was measured using a caliper (Fisher Scientific).

Assay [3] relates to LIF-induced STAT3 phosphorylation in U251 glioma cells. Description: Inhibition of LIF-induced STAT3 phosphorylation (Tyr705) by western blot, 5D8 humanization panel. In kind it is cell-based, human. Conditions: serum starved, antibody 10 μg/ml over night. The protocol: One clone from the rat immunization (5D8) was chosen for subsequent humanization. Humanization was conducted using standard CDR grafting methods. The heavy chain and light chain regions were cloned from the 5D8 hybridoma using standard molecular cloning techniques and sequenced by the Sanger method. A BLAST search was then conducted against human heavy chain and light chain variable sequences and 4 sequences from each were chosen as acceptor frameworks for humanization. These acceptor frameworks were deimmunized to remove T cell response epitopes. The heavy chain and light chain CDR1, CDR2 and CDR3 of 5D8 were cloned into the 4 different heavy chain acceptor frameworks (H1 to H4), and 4 different light chain frameworks (L1 to L4). Then all 16 different antibodies were tested for: expression in CHO-S cells (Selexis); inhibition of LIF-induced STAT3 phosphorylation; and binding affinity by Surface Plasmon Resonance (SPR). These experiments are summarized in
Inhibition of LIF-induced STAT3 phosphorylation at tyrosine 705 was determined by western blot. […] After treatment, proteins were obtained in radio-immunoprecipitation assay (RIPA) lysis buffer containing phosphatase and protease inhibitors, quantified (BCA-protein assay, Thermo Fisher Scientific) and used in western blot. […] Proteins were detected by chemiluminescence (SuperSignal Substrate, catalog #34076, Thermo Fisher Scientific). […]
In general terms: In western blotting, separated proteins are transferred to a membrane and probed.

Assay [4] deals with STAT3 phosphorylation (Tyr 705) in U251 glioma cells. Description: Inhibition of STAT3 phosphorylation in glioma cell culture model of LIF activation, western blot. In kind it is cell-based, human. The following applies: 10 μg/ml over night, FIG. 2A. The procedure:
U251 glioma cells were plated in 6-well plates at a density of 150,000 cells/well. Cells were cultured in complete medium for 24 hours before any treatment.
After treatment, proteins were obtained in radio-immunoprecipitation assay (RIPA) lysis buffer containing phosphatase and protease inhibitors, quantified (BCA-protein assay, Thermo Fisher Scientific) and used in western blot. For western blot, membranes were blocked for 1 hour in 5% non-fatty milk—TBST and incubated with the primary antibody overnight (p-STAT3, catalog #9145, Cell Signaling or STAT3, catalog #9132, Cell Signaling) or 30 minutes (β-actin-peroxidase, catalog #A3854, Sigma-Aldrich). Membranes were then washed with TBST, incubated with secondary antibody if necessary, and washed again. Proteins were detected by chemiluminescence (SuperSignal Substrate, catalog #34076, Thermo Fisher Scientific).

Assay [5] deals with KLN205 non-small cell lung cancer (NSCLC) cells. Description: Orthotopic syngeneic mouse model of non-small cell lung carcinoma (KLN205). In kind it is in vivo. The following applies: DBA/2 mice, 15 mg/kg or 30 mg/kg intraperitoneally twice a week, versus vehicle. The procedure:
To determine the ability of the humanized 5D8 clone to inhibit a LIF positive cancer in vivo this antibody was tested in a mouse model of non-small cell lung carcinoma (NSCLC).
The murine non-small cell lung cancer (NSCLC) cell line KLN205 with high LIF levels was stably infected with lentivirus expressing the firefly luciferase gene for in vivo bioluminescence monitoring. To develop the mouse model, 5×10^5KLN205 non-small cell lung cancer (NSCLC) cells were orthotopically implanted into the left lung of 8-week-old immunocompetent syngeneic DBA/2 mice by intercostal puncture. […] For the bioluminescence imaging, mice received an intraperitoneal injection of 0.2 mL of 15 mg/mL D-luciferin under 1-2% inhaled isoflurane anesthesia. The bioluminescence signals were monitored using the IVIS system 2000 series (Xenogen Corp., Alameda, Calif., USA) consisting of a highly sensitive cooled CCD camera. Living Image software (Xenogen Corp.) was used to grid the imaging data and integrate the total bioluminescence signals in each boxed region. Data were analyzed using the total photon flux emission (photons/second) in the regions of interest (ROI). […] Data are presented as mean±SEM.

For the next assay, the system named is human U251 GBM cells. Description: Orthotopic GBM tumor model with luciferase expressing U251 cells in mice. In kind it is in vivo. Conditions: 200 μg or 300 μg twice a week, FIG. 7B. The procedure: Results of this study are shown in FIG. 7A (quantitation at day 26 post treatment). […] Tumor size was determined by bioluminescence (Xenogen IVIS Spectrum) on day 7. […] Statistical significance was calculated using the unpaired non-parametric Mann-Whitney U-test.
U251 cells stably expressing luciferase were harvested, washed in PBS, centrifuged at 400 g for 5 min, resuspended in PBS and counted with an automated cell counter (Countess, Invitrogen). Cells were kept on ice to maintain optimal viability. Mice were anaesthetized with intraperitoneal administration of Ketamine (Ketolar50®)/Xylacine (Rompún®) (75 mg/kg and 10 mg/kg respectively). Each mouse was carefully placed in the stereotactic device and immobilized. […]
Body weight and tumor volume: Body weight was measured 2 times/week and tumor growth was quantified by bioluminescence on day 7 (Xenogen IVIS Spectrum). To quantify bioluminescence activity in vivo, mice were anaesthetized using isofluorane, and injected intraperitoneally with luciferin substrate (PerkinElmer) ([…]).
Tumor size as determined by bioluminescence (Xenogen IVIS Spectrum) was evaluated at day 7. The individual tumor measurements and mean±SEM for each treatment group were calculated. Statistical significance was determined by the unpaired non-parametric Mann-Whitney U-test.

Assay [6] concerns CCL22 and CD206 (MRC1) expression in patient samples. Description: Human organotypic tissue slice culture model, M2 macrophage markers. In kind it is cell-based. Conditions: three patient samples, FIG. 10B.

“And” between values parts separate entries of the source, which are not always exact repeats. Equal values may be shown once. “Also recorded” adds a separate entry of the source.

For `CC(=O)O[C@H]1C(=O)[C@@]2(C)[C@H]([C@H](OC(=O)c3ccccc3)[C@]3(O)C[C@H](OC(=O)[C@H](O)[C@@H](NC(=O)c4ccccc4)c4ccccc4)C(C)=C1C3(C)C)[C@]1(OC(C)=O)CO[C@@H]1C[C@@H]2O` [Paclitaxel], the “Tumor Volumes at Endpoint (Day 21)” value in the assay with CT26 tumors [1] was 651.8 mm^3 and 214.0 mm^3 and 461.5 mm^3 and 698.3 mm^3 and 457.7 mm^3 and 256.2 mm^3 and 592.2 mm^3 and 435.9 mm^3 and 762.1 mm^3 and 1236.2 mm^3 and 112.9 mm^3.

With `N.N.[Cl][Pt][Cl]` [Cisplatin, cis-diamminedichloridoplatinum(II)], the “Tumor Volumes at Endpoint (Day 21)” value in the assay with CT26 tumors [1] is 328.5 mm^3 and 1279.7 mm^3 and 689.4 mm^3 and 512.3 mm^3 and 193.9 mm^3 and 997.5 mm^3 and 257.9 mm^3 and 924.4 mm^3 and 744.2 mm^3 and 1313.6 mm^3 and 676.0 mm^3 and 953.8 mm^3.

Turning to “h5D8: humanized (CDR grafted) version of rat anti-LIF antibody 5D8, H2 heavy and L2 light chain; VH SEQ ID NO: 42, VL SEQ ID NO: 46”, in the assay on ID8 cells, the “tumor volume / tumor growth” value is recorded as “reduced tumor volume; also recorded: significant reduction in tumor growth”. The “inflammatory phenotype of tumor associated macrophages (TAMs)” value in the assay with CT26 tumors [2] (15 mg/kg, 2 QW, day 25 (endpoint)) is reported as “polarized towards the M1 pro-inflammatory phenotype”. For the same compound, in the assay on CT26 tumors [2] (syngeneic CT26 tumor model), the “macrophages with an M1 phenotype (CD206 negative/MHCII positive fraction)” value was “increased” and the “macrophages with an M2 phenotype (CD206 positive/MHCII negative fraction)” value is recorded as “decreased”. The “Inhibition of LIF-induced STAT3 phosphorylation (FIG. 1, in words)” value in assay [3] was “high”. The “Tumor Volumes at Endpoint (Day 21)” value in the assay on CT26 tumors [1] is 656.8 mm^3 and 1354.4 mm^3 and 1190.7 mm^3 and 1109.1 mm^3 and 906.6 mm^3 and 640.3 mm^3 and 0.0 mm^3 and 956.9 mm^3 and 318.7 mm^3 and 253.6 mm^3 and 1408.5 mm^3 and 508.3 mm^3. Further, in assay [4], the “inhibition of STAT3 phosphorylation (Tyr 705) versus parental antibody” value was “increased inhibition”. In assay [5], the “tumor growth by bioluminescence” value was “promote tumor regression”. The “tumor growth by bioluminescence” value in assay [5] (listed as humanized 5D8) is “reduced tumor growth”. In addition, the “tumor size by bioluminescence on day 7” value with human U251 GBM cells is recorded as “statistically significant reduction in tumor”. In addition, in assay [6], the “CCL22 and CD206 (MRC1) expression” value is “significant decrease”.

`COc1cccc2c1C(=O)c1c(O)c3c(c(O)c1C2=O)C[C@@](O)(C(=O)CO)C[C@@H]3O[C@H]1C[C@H](N)[C@H](O)[C@H](C)O1` [Doxorubicin]: the “Tumor Volumes at Endpoint (Day 21)” value in the assay with CT26 tumors [1] was 408.7 mm^3 and 1207.4 mm^3 and 94.2 mm^3 and 109.1 mm^3 and 294.9 mm^3 and 780.2 mm^3 and 351.2 mm^3 and 735.2 mm^3 and 48.9 mm^3 and 463.9 mm^3 and 588.8 mm^3 and 230.3 mm^3.
